Experimental data taken from patent publication US20260241049A1, “Radiopharmaceutical Compositions Targeting Glypican-3 and Uses Thereof” (RayzeBio, Inc., priority 2023, published 2026).
Starred links: 1 amine or outer side, 2 acyl side, 3 side chain; linkers in the order of their positions; H or OH if unused. Positions of bridges follow the written chain, without caps; N, C: chain ends. Non-standard residues stand in square brackets, D forms with d. Residues, ends and D or L forms follow the SMILES beside them. Groups on a side chain read outwards from the residue. *: point of attachment. Phe(4-(1-Me-pyrazol-4-yl)) = Cn1cc(-c2ccc(C[C@H](N)C(=O)O)cc2)cn1; NMeAla(isoquinolin-7-yl) = CN[C@@H](Cc1ccc2ccncc2c1)C(=O)O; DOTA = O=C(O)CN1CCN(CC(=O)O)CCN(CC(=O)*)CCN(CC(=O)O)CC1; CH2CON(CH2CH2)2NCH2COOH = O=C(O)CN1CCN(C(=O)C*)CC1; Phe(4-CH2COOH) = N[C@@H](Cc1ccc(CC(=O)O)cc1)C(=O)O; 3Pal(6-Ph) = N[C@@H](Cc1ccc(-c2ccccc2)nc1)C(=O)O; Phe(4-COOH) = N[C@@H](Cc1ccc(C(=O)O)cc1)C(=O)O; Phe(4-CH2NH2) = NCc1ccc(C[C@H](N)C(=O)O)cc1; Piperazinyl(4-CH2COOH) = O=C(O)CN1CCN(*)CC1; NMe2Nal = CN[C@@H](Cc1ccc2ccccc2c1)C(=O)O; AEF = NCCOc1ccc(C[C@H](N)C(=O)O)cc1; NMeI = CC[C@H](C)[C@H](NC)C(=O)O; NMeQ = CN[C@@H](CCC(N)=O)C(=O)O; NMehSer = CN[C@@H](CCO)C(=O)O; NMeK = CN[C@@H](CCCCN)C(=O)O; NMeC = CN[C@@H](CS)C(=O)O; Carboxymethyl = O=C(O)C*; NMeA = CN[C@@H](C)C(=O)O; CO = O=C([*:1])[*:2]

target: T1, human Glypican3 (Homo sapiens, UniProt P51654); test: SPR binding to Glypican-3, Method B-1 (Glypican3 immobilized on CM3 chip, Biacore T200); conditions: SPR method B-1
T1 construct: purchased R&D systems 2119-GP
Description: A CM3 sensor chip (Cytiva) was inserted into a Biacore T200 (Cytiva), primed three times with a running buffer: HBS-P+, pH 7.4 (Cytiva), and equilibrated at a flow rate of 30 μL/min. Ligand immobilization was performed at a flow rate of 10 μL/min. 50 μL each of 60 mM EDC solution (Cytiva) and 650 mM NHS solution (Cytiva) were mixed, and then reacted at a flow rate of 10 μL/min for 420 seconds, 150 μL of 0.2 μM human Glypican3 (R&D systems, catalog number: 2119-GP) solution which was prepared by diluting with 10 mM acetic acid solution (pH 5.0), was reacted at a flow rate of 10 μL/min for 420 seconds, and Glypican3 was immobilized on the CM3 sensor chip. After immobilization, 1.0 M ethanolamine aqueous solution (Cytiva) was allowed to react for 420 seconds at a flow rate of 10 μL/min for capping. A peptide lysate prepared to 10 mM in DMSO solution was diluted with running buffer to a final concentration of 10 μM peptide lysate. After that, 5 serial dilution series (100 nM, 50 nM, 25 nM, 10 nM, 5 nM) of peptide solutions were prepared. Using the above samples, peptide kinetics for Glypican3 was obtained by SPR measurement. Kinetics evaluation of Glypican3 was performed by SPR measurements at a flow rate of 10 μL/min, setting the association time to 120 seconds and the disassociation time to 600 seconds.
(§1) The obtained data by Method B-1, Method B-2, Method B-3 and Method B-4 were analyzed by follow. Single Cycle Kinetics was used as the kinetics evaluation model, and curve fitting was performed using Biacore T200 Evaluation Software Version 3.0 (Cytiva). The obtained sensorgram was subjected to curve fitting by the method of least squares and obtained KD values of the macrocyclic peptides in this disclosure for Glypican 3 protein are shown in Table 18.

Row | Compound | Kd
1 | CC[C@H](C)[C@@H]1NC(=O)[C@H](Cc2ccc(C(=O)O)cc2)NC(=O)[C@H](CCC(N)=O)N(C)C(=O)[C@H](CC(=O)O)NC(=O)[C@H]([C@@H](C)CC)N(C)C(=O)[C@H](CCCCNC(C)=O)N(C)C(=O)CSC[C@@H](C(N)=O)N(C)C(=O)[C@H](Cc2ccc(-c3ccccc3)nc2)NC(=O)CNC(=O)[C@H](Cc2ccc3ccccc3c2)N(C)C(=O)[C@H](Cc2ccc(C(=O)O)cc2)NC(=O)[C@H]([C@@H](C)CC)NC1=O [Conjugate 2-1] ({CH2CO}-[NMeK](Ac)[NMeI]D[NMeQ][Phe(4-COOH)]II[Phe(4-COOH)][NMe2Nal]G[3Pal(6-Ph)][NMeC]-NH2; thioether N-12) | 500 pM

target: Human Glypican3-Fc (Homo sapiens, UniProt P51654); test: SPR binding to Glypican-3, Method B-2 (Glypican3-Fc captured by anti-human IgG (Fc) antibody on CM3 chip); conditions: SPR method B-2
Description: A CM3 sensor chip (Cytiva) was inserted into a Biacore T200 (Cytiva), primed three times with a running buffer: HBS-P-+, pH 7.4 (Cytiva), and equilibrated at a flow rate of 30 μL/min. Using the Anti-Fc Capture Kit (Cytiva), 50 LL each of 60 mM EDC solution (Cytiva) and 650 mM NHS solution (Cytiva) were mixed, and then reacted at a flow rate of 10 μL/min for 420 seconds, 150 μL of […] Anti-human IgG (Fc) Antibody solution was prepared by diluting with 10 mM acetic acid solution (pH 5.0), reacted at a flow rate of 10 μL/min for 420 seconds, and immobilized on a CM3 sensor chip. After immobilization, 1.0 M ethanolamine aqueous solution (Cytiva) was allowed to react for 420 seconds at a flow rate of 10 μL/min for capping. Human Glypican3-Fc (ACRO Biosystems, GP3-H5258) was allowed to react for 60 seconds at a flow rate of 10 μL/min. After capturing human Glypican3-Fc, a peptide solution prepared to 10 mM in DMSO solution was diluted with a running buffer to a final concentration of 10 μM. After that, 5 serial dilution series (100 nM, 50 nM, 25 nM, 10 nM, 5 nM) of peptide solutions were prepared. Using the above samples, peptide kinetics for Glypican3 was obtained by SPR measurement. Kinetics evaluation of Glypican3 was performed by SPR measurements at a flow rate of 10 μL/min. setting the association time to 120 seconds and the disassociation time to 600 seconds.
as §1

Row | Compound | Kd
2 | CC[C@H](C)[C@@H]1NC(=O)[C@H](Cc2ccc(C(=O)O)cc2)NC(=O)[C@H](CCC(N)=O)N(C)C(=O)[C@H](CC(=O)O)NC(=O)[C@H](CCOC)N(C)C(=O)[C@H](CCCCNC(=O)CN2CCN(CC(=O)O)CCN(CC(=O)O)CCN(CC(=O)O)CC2)N(C)C(=O)CSC[C@@H](C(N)=O)N(C)C(=O)[C@H](Cc2ccc(-c3ccccc3)nc2)NC(=O)CNC(=O)[C@H](Cc2ccc3ccccc3c2)N(C)C(=O)[C@H](Cc2ccc(CC(=O)O)cc2)NC(=O)[C@H]([C@@H](C)CC)NC1=O [Lu-C-21] ({CH2CO}-[NMeK](DOTA)[NMehSer](Me)D[NMeQ][Phe(4-COOH)]II[Phe(4-CH2COOH)][NMe2Nal]G[3Pal(6-Ph)][NMeC]-NH2; thioether N-12) | 1040 pM
3 | CC[C@H](C)[C@@H]1NC(=O)[C@H]([C@@H](C)OC)NC(=O)[C@H](Cc2ccc(C(=O)O)cc2)NC(=O)[C@H](CCC(N)=O)N(C)C(=O)[C@H](CC(=O)O)NC(=O)[C@H](CCOC)N(C)C(=O)[C@H](CCC(N)=O)N(C)C(=O)CSC[C@@H](C(N)=O)N(C)C(=O)[C@H](Cc2ccc(-c3ccccc3)nc2)NC(=O)CNC(=O)[C@H](Cc2ccc3ccccc3c2)N(C)C(=O)[C@H](Cc2ccc(OCCNC(=O)N3CCN(CC(=O)O)CC3)cc2)NC1=O [Conjugate 2-19] ({CH2CO}-[NMeQ][NMehSer](Me)D[NMeQ][Phe(4-COOH)]T(Me)I[AEF]([CO-Piperazinyl(4-CH2COOH)])[NMe2Nal]G[3Pal(6-Ph)][NMeC]-NH2; thioether N-12) | 500 pM
4 | CC[C@H](C)[C@@H]1NC(=O)[C@H]([C@@H](C)OC)NC(=O)[C@H](Cc2ccc(C(=O)O)cc2)NC(=O)[C@H](CCC(N)=O)N(C)C(=O)[C@H](CC(=O)O)NC(=O)[C@H](CCOC)N(C)C(=O)[C@H](CCC(N)=O)N(C)C(=O)CSC[C@@H](C(N)=O)N(C)C(=O)[C@H](Cc2ccc(-c3ccccc3)nc2)NC(=O)CNC(=O)[C@H](Cc2ccc3ccccc3c2)N(C)C(=O)[C@H](Cc2ccc(OCC(=O)N3CCN(CC(=O)O)CC3)cc2)NC1=O [Conjugate 2-22] ({CH2CO}-[NMeQ][NMehSer](Me)D[NMeQ][Phe(4-COOH)]T(Me)IY(CH2CON(CH2CH2)2NCH2COOH)[NMe2Nal]G[3Pal(6-Ph)][NMeC]-NH2; thioether N-12) | 800 pM
5 | CC[C@H](C)[C@@H]1NC(=O)[C@H](Cc2ccc(C(=O)O)cc2)NC(=O)[C@H](CCC(N)=O)N(C)C(=O)[C@H](CC(=O)O)NC(=O)[C@H](CCC(N)=O)N(C)C(=O)[C@H](C)N(C)C(=O)CSC[C@@H](C(N)=O)N(C)C(=O)[C@H](Cc2ccc(-c3ccccc3)nc2)NC(=O)CNC(=O)[C@H](Cc2ccc3ccccc3c2)N(C)C(=O)[C@H](Cc2ccc(C(=O)O)cc2)NC(=O)[C@H]([C@@H](C)CC)NC1=O [Conjugate 2-23] ({CH2CO}-[NMeA][NMeQ]D[NMeQ][Phe(4-COOH)]II[Phe(4-COOH)][NMe2Nal]G[3Pal(6-Ph)][NMeC]-NH2; thioether N-12) | 1500 pM
6 | CC[C@H](C)[C@@H]1NC(=O)[C@H](Cc2ccc(C(=O)O)cc2)NC(=O)[C@H](CCC(N)=O)N(C)C(=O)[C@H](CC(=O)O)NC(=O)[C@H]([C@@H](C)CC)N(C)C(=O)[C@H](CCCCNC(=O)[C@@H](Cc2ccccc2)NC(=O)CN2CCN(CC(=O)O)CCN(CC(=O)O)CCN(CC(=O)O)CC2)N(C)C(=O)CSC[C@@H](C(N)=O)N(C)C(=O)[C@H](Cc2ccc(-c3ccccc3)nc2)NC(=O)CNC(=O)[C@H](Cc2ccc3ccncc3c2)N(C)C(=O)[C@H](Cc2ccc(OCC(=O)O)cc2)NC(=O)[C@H]([C@@H](C)CC)NC1=O [Lu-C-41] ({CH2CO}-[NMeK]([dF-DOTA])[NMeI]D[NMeQ][Phe(4-COOH)]IIY(Carboxymethyl)[NMeAla(isoquinolin-7-yl)]G[3Pal(6-Ph)][NMeC]-NH2; thioether N-12) | 800 pM
7 | CC[C@H](C)[C@@H]1NC(=O)[C@H](Cc2ccc(C(=O)O)cc2)NC(=O)[C@H](CCC(N)=O)N(C)C(=O)[C@H](CC(=O)O)NC(=O)[C@H](CCC(N)=O)N(C)C(=O)[C@H](CCC(N)=O)N(C)C(=O)CSC[C@@H](C(N)=O)N(C)C(=O)[C@H](Cc2ccc(-c3cnn(C)c3)cc2)NC(=O)CNC(=O)[C@H](Cc2ccc3ccccc3c2)N(C)C(=O)[C@H](Cc2ccc(OCCNC(=O)CN3CCN(CC(=O)O)CCN(CC(=O)O)CCN(CC(=O)O)CC3)cc2)NC(=O)[C@H]([C@@H](C)CC)NC1=O [Lu-C-28] ({CH2CO}-[NMeQ][NMeQ]D[NMeQ][Phe(4-COOH)]II[AEF](DOTA)[NMe2Nal]G[Phe(4-(1-Me-pyrazol-4-yl))][NMeC]-NH2; thioether N-12) | 1800 pM
8 | CC[C@H](C)[C@@H]1NC(=O)[C@H]([C@@H](C)OC)NC(=O)[C@H](Cc2ccc(C(=O)O)cc2)NC(=O)[C@H](CCC(N)=O)N(C)C(=O)[C@H](CC(=O)O)NC(=O)[C@H](CCOC)N(C)C(=O)[C@H](C)N(C)C(=O)CSC[C@@H](C(N)=O)N(C)C(=O)[C@H](Cc2ccc(-c3ccccc3)nc2)NC(=O)CNC(=O)[C@H](Cc2ccc3ccccc3c2)N(C)C(=O)[C@H](Cc2ccc(OCCNC(=O)CN3CCN(CC(=O)O)CCN(CC(=O)O)CCN(CC(=O)O)CC3)cc2)NC1=O [Lu-C-44] ({CH2CO}-[NMeA][NMehSer](Me)D[NMeQ][Phe(4-COOH)]T(Me)I[AEF](DOTA)[NMe2Nal]G[3Pal(6-Ph)][NMeC]-NH2; thioether N-12) | 1000 pM
9 | CC[C@H](C)[C@@H]1NC(=O)[C@H](Cc2ccc(C(=O)O)cc2)NC(=O)[C@H](CCC(N)=O)N(C)C(=O)[C@H](CC(=O)O)NC(=O)[C@H]([C@@H](C)CC)N(C)C(=O)[C@H](CCCCNC(=O)[C@H](Cc2c[nH]cn2)NC(=O)CN2CCN(CC(=O)O)CCN(CC(=O)O)CCN(CC(=O)O)CC2)N(C)C(=O)CSC[C@@H](C(N)=O)N(C)C(=O)[C@H](Cc2ccc(-c3ccccc3)nc2)NC(=O)CNC(=O)[C@H](Cc2ccc3ccncc3c2)N(C)C(=O)[C@H](Cc2ccc(OCC(=O)O)cc2)NC(=O)[C@H]([C@@H](C)CC)NC1=O [Lu-C-34] ({CH2CO}-[NMeK]([His-DOTA])[NMeI]D[NMeQ][Phe(4-COOH)]IIY(Carboxymethyl)[NMeAla(isoquinolin-7-yl)]G[3Pal(6-Ph)][NMeC]-NH2; thioether N-12) | 800 pM
10 | CC[C@H](C)[C@@H]1NC(=O)[C@H]([C@@H](C)OC)NC(=O)[C@H](Cc2ccc(C(=O)O)cc2)NC(=O)[C@H](CCC(N)=O)N(C)C(=O)[C@H](CC(=O)O)NC(=O)[C@H](CCOC)N(C)C(=O)[C@H](CCC(N)=O)N(C)C(=O)CSC[C@@H](C(N)=O)N(C)C(=O)[C@H](Cc2ccc(-c3ccccc3)nc2)NC(=O)CNC(=O)[C@H](Cc2ccc3ccccc3c2)N(C)C(=O)[C@H](Cc2ccc(CNC(=O)N3CCN(CC(=O)O)CC3)cc2)NC1=O [Conjugate 2-20] ({CH2CO}-[NMeQ][NMehSer](Me)D[NMeQ][Phe(4-COOH)]T(Me)I[Phe(4-CH2NH2)]([CO-Piperazinyl(4-CH2COOH)])[NMe2Nal]G[3Pal(6-Ph)][NMeC]-NH2; thioether N-12) | 700 pM
